Assay results reported in publication PMC9967700, “Metabolism-Guided Optimization of Tryptophanol-Derived Isoindolinone p53 Activators” (Pharmaceuticals, 2023).
Read-outs that look alike come from different tables or passages of the source.

How the values were obtained:
HCT116 p53+/+ cells = test: Antiproliferative activity, sulforhodamine B (SRB) assay; type: cell-based, human; conditions: for S.I. (selectivity index): HCT116 p53−/− versus HCT116 p53+/+; for increase in the antiproliferative activity on bromine insertion at the C-2 indole: versus non-brominated parent isoindolinone
Experimental: (§1) Tumor cells were cultured in RPMI-1640 with UltraGlutamine (Lonza, VWR), supplemented with 10% fetal bovine serum (FBS; Gibco, Alfagene) and maintained in a humidified incubator at 37 °C with 5% CO2. Cell lines were seeded in 96-well plates at the cells/well density of 5.0 × 10^3.

HCT116 p53−/− cells = test: as above; type: cell-based, human
Experimental: as §1

[1] = biological target: T1, wt p53 core domain (DNA Binding Domain; p53DBD; residues 94–312) (Homo sapiens, UniProt P04637); test: Differential scanning fluorimetry (DSF) thermostability; conditions: 13d 2.5 mM, MQ 2 mM; for Tm of the wt p53DBD: 5% DMSO, mean ± SD, three assays
T1 construct: residues 94–312; host or cells: E. coli BL21 (DE3)-[pLys-S]
Experimental: Expression of wt p53 core domain. The wt p53DBD was expressed in E. coli BL21 (DE3)-[pLys-S] in fusion with an N-terminal 21-residue tag containing the hexa-histidyl peptide (His6) and the thrombin recognition sequence, using the pET15b-based expression construct.
For protein expression 10 mL of an overnight (ON) culture was used to inoculate 1 L of LB medium supplemented with 1 mL of ampicillin 100 mg/mL and 1mL of zinc sulphate 100 mM. Culture medium was incubated at 37 °C, 140 rpm till an OD600nm of ~0.5. Protein expression was then induced by adding 0.5 mL of isopropyl β-D-1-thiogalactopyranoside (IPTG) 1M (Cfinal = 0.5 mM) and bacterial growth at 27 °C, 120 rpm ON. E. coli cells were pelleted by centrifugation for 10 min, 4000 rpm, at 4 °C. The cellular pellet was resuspended in 10 mL of Lysis buffer (Sodium phosphate 50 mM; NaCl 300 mM; glycerol 10%, pH 7.4) supplemented with 1mg/mL Lysozyme (Biochemica Applichem Panreac), 1 mM of phenylmethanesulfonyl fluoride (PMSF) (Merck), 5 µg of DNAse I (Panreac applichem) and 0.8% of Triton X-100 (Merck). After a first step of chemical lysis (30 min incubation, at 4 °C), cells were further disrupted by four cycles of sonication, at 4 °C, during 60 s at 50% duty free cycle on a Vibra Cell (Media Cibernetics). The lysate was subsequently cleared by centrifugation at 10,000 rpm, 40 min, at 4 °C and the supernatant containing the soluble proteins were collected.
Purification of human wt p53DBD and His6-tag removal. Immobilized Metal Affinity Chromatography (IMAC) was performed to purify the wt p53DBD using a nickel-nitrilotriacetic acid (Ni-NTA) agarose resin (QIAGEN). Briefly, 1 mL of Ni^2+ resin was pre-equilibrated using MilliQ water (3 × 1 mL) and Lysis buffer containing 10 mM imidazole (3 × 1 mL). The soluble fraction of cellular lysate was supplemented with 6.8 µL of β-mercaptoethanol and 33.2 µL of imidazole 3 M to obtain the final concentrations of […] and 10 mM, respectively. The lysate was added to the pre-equilibrated resin and protein binding was performed by incubation on an orbital shaker for one hour at 4 °C. The suspension was added to a 9 cm polypropylene conical column (Poly-Prep columns; BioRad) and protein purification was performed by gravity flow with an imidazole gradient consisting of three washing steps (2 × 5 mL of Lysis buffer, 20 mM imidazole; 2 × 5 mL of Lysis buffer, 50 mM imidazole; and 1 × 2.5 mL Lysis buffer, 75 mM imidazole) and an elution step with 5 × 500 µL of Lysis buffer, 250 mM imidazole. Protein eluted fractions were assessed by SDS-PAGE and Coomassie staining. Size exclusion chromatography was performed on the pooled protein eluted fractions, using an AKTA prime plus system (GE Healthcare) equipped with a UV detector (280 nm), a HiLoad 16/60, Superdex 200 prep grade column (GE Healthcare) and SEC buffer (25 mM potassium phosphate buffer, 150 mM NaCl, pH 7.5). The fractions corresponding to the wt p53DBD monomers were collected and treated with thrombin (8 units of thrombin/mg wt p53DBD). The thrombin cleavage was conducted for 18 h at rt at pH 7.4 in the assay buffer recommended by the supplier. Before and after digestion protein concentration was determined through Bradford method.
Thermostability of wt p53DBD core domain assessed by differential scanning fluorimetry (DSF). An amount of 5 μg of thrombin-cleaved wt p53DBD was incubated with testing compounds (2.5 mM) in 25 mM potassium phosphate buffer and 150 mM NaCl, pH 7.5 in a final volume of 50 µL containing 2 µL of 1 mM DTT or 1 mM TCEP to promote p53 core domain redox control, and Sypro Orange at 2.5x final concentration. The fluorescence was assessed on a C1000 Touch thermal cycler equipped with a CFX96 optical reaction module (BioRad) and the FRET channel (λexc 450–490 nm and λem 560–580 nm). Temperature was ramped from 20 to 90 °C with a rate of 0.2 °C/12 sec. The Tm values were calculated using Origin 8 Software. […]

[2] = Homo sapiens, HCT-116, 48 h treatment, mean ± SEM of 3–5 independent experiments, read-out: HCT116 p53+/+ GI50
[3] = Homo sapiens, HCT-116, 48 h, 48 h treatment, mean ± SEM of 3–5 independent experiments, read-out: HCT116 p53−/− GI50
[4] = Homo sapiens, HCT-116, 48 h treatment, mean ± SEM of 5 independent experiments, read-out: HCT116 p53+/+ GI50
[5] = Homo sapiens, HCT-116, 48 h, 48 h treatment, mean ± SEM of 5 independent experiments, read-out: HCT116 p53−/− GI50

T1 sequence (P04637 94-312): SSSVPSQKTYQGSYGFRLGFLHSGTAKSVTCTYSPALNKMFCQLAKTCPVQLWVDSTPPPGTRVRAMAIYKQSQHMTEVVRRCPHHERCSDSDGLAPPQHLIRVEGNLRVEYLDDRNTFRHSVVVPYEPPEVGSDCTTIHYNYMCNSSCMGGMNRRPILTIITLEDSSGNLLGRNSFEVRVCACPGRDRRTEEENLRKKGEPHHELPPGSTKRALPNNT

Compound | GI50 (HCT116 p53+/+ cells; [2]) [µM] | GI50 (HCT116 p53−/− cells; [3]) [µM] | S.I. (selectivity index) (HCT116 p53+/+ cells) | also measured
C=C1C(=O)C2CCN1CC2 [MQ, Methylene quinuclidinone, reference compound] | – | – | – | ΔTm of the wt p53DBD ([1]; DTT 1 mM): 2.28 °C; Tm of the wt p53DBD ([1]; DTT (1 mM)): 42.22 ± 0.30 °C; ΔTm of the wt p53DBD ([1]; TCEP 1 mM): 2.11 °C; Tm of the wt p53DBD ([1]; TCEP (1 mM)): 43.27 ± 1.15 °C
C[C@]12OC[C@H](C[C@H]3C(=O)Nc4ccccc43)N1C(=O)c1ccccc12 [SLMP53-1_M3b, (3S,9bR)-9b-methyl-3-(((R)-2-oxoindolin-3-yl)methyl)-2,3-dihydrooxazolo[2,3-a]isoindol-5(9bH)-one] | – | – | – | GI50 (HCT116 p53+/+ cells; [4]): > 50 µM; GI50 (HCT116 p53−/− cells; [5]): > 50 µM
CCCn1c(Br)c(C[C@@H]2CO[C@@]3(c4ccccc4)c4ccccc4C(=O)N23)c2ccccc21 [13d′, (3R, 9bS)-3-((2-bromo-1-propyl-1H-indol-3-yl)methyl)-9b-phenyl-2,3-dihydrooxazolo[2,3-a]isoindol-5(9bH)-one] | 31.1 ± 4 | 25.4 ± 1.2 | – | –
COc1ccc(C2=N[C@@H](c3ccc(Cl)cc3)[C@@H](c3ccc(Cl)cc3)N2C(=O)N2CCNC(=O)C2)c(OC(C)C)c1 [nutlin-3a, reference compound] | – | – | – | GI50 (HCT116 p53+/+ cells; control of the SRB assay, 48 h, read-out: GI50 in HCT116 p53+/+): 3.2 ± 1 µM; GI50 (HCT116 p53−/− cells; control of the SRB assay, 48 h, read-out: GI50 in HCT116 p53−/−): 24 ± 0.7 µM
C[C@]12OC[C@H](C[C@@H]3C(=O)Nc4ccccc43)N1C(=O)c1ccccc12 [SLMP53-1_M3a, (3S,9bR)-9b-methyl-3-(((S)-2-oxoindolin-3-yl)methyl)-2,3-dihydrooxazolo[2,3-a]isoindol-5(9bH)-one] | – | – | – | GI50 (HCT116 p53+/+ cells; [4]): > 50 µM; GI50 (HCT116 p53−/− cells; [5]): > 50 µM

The next lines start with results.

GI50 (HCT116 p53+/+ cells; [2]) [µM] | GI50 (HCT116 p53−/− cells; [3]) [µM] | Compound | S.I. (selectivity index) (HCT116 p53+/+ cells) | also measured
23.3 ± 0.9 | 22.2 ± 1.2 | O=C1c2ccccc2[C@@]2(c3ccc(Cl)c([N+](=O)[O-])c3)OC[C@H](Cc3c(Br)[nH]c4ccccc34)N12 [Compound 13i, (3S, 9bR)-3-((2-bromo-1H-indol-3-yl)methyl)-9b-(4-chloro-3-nitrophenyl)-2,3-dihydrooxazolo[2,3-a]isoindol-5(9bH)-one] | 1.0 | –
34 ± 4 | 20.4 ± 1.15 | Cc1ccc(S(=O)(=O)n2c(Br)c(C[C@H]3CO[C@]4(c5ccccc5)c5ccccc5C(=O)N34)c3ccccc32)cc1 [Compound 13o, (3S, 9bR)-3-((2-bromo-1-tosyl-1H-indol-3-yl)methyl)-9b-phenyl-2,3-dihydrooxazolo[2,3-a]isoindol-5(9bH)-one] | 0.6 | less active derivative compared with SLMP53-2 (7) (HCT116 p53+/+ cells; HCT116 p53+/+): 4.0 fold
23.2 ± 1.15 | > 50 | O=C1c2ccccc2[C@@]2(c3ccccc3)OC[C@H](Cc3c(Br)n(C(=O)c4ccccc4)c4ccccc34)N12 [Compound 13l, (3S, 9bR)-3-((1-benzoyl-2-bromo-1H-indol-3-yl)methyl)-9b-phenyl-2,3-dihydrooxazolo[2,3-a]isoindol-5(9bH)-one] | – | –
14.6 ± 0.4 | 10.5 ± 2.6 | O=C1c2ccccc2[C@@]2(c3ccccc3)OC[C@H](Cc3c(Br)[nH]c4ccccc34)N12 [Compound 13a, (3S, 9bR)-3-((2-bromo-1H-indol-3-yl)methyl)-9b-phenyl-2,3-dihydrooxazolo[2,3-a]isoindol-5(9bH)-one] | 0.7 | –
13.05 ± 0.05 | 22.5 ± 2.5 | CC(=O)n1c(Br)c(C[C@H]2CO[C@]3(c4ccccc4)c4ccccc4C(=O)N23)c2ccccc21 [Compound 13m, (3S, 9bR)-3-((1-acetyl-2-bromo-1H-indol-3-yl)methyl)-9b-phenyl-2,3-dihydrooxazolo[2,3-a]isoindol-5(9bH)-one] | 1.7 | –
12.5 ± 0.5 | 13.5 ± 0.5 | CS(=O)(=O)n1c(Br)c(C[C@H]2CO[C@]3(c4ccccc4)c4ccccc4C(=O)N23)c2ccccc21 [Compound 13n, (3S, 9bR)-3-((2-bromo-1-(methylsulfonyl)-1H-indol-3-yl)methyl)-9b-phenyl-2,3-dihydrooxazolo[2,3-a]isoindol-5(9bH)-one] | 1.1 | –
6.95 ± 0.6 | 6.7 ± 1.6 | O=C1c2ccccc2[C@@]2(c3ccc(F)cc3)OC[C@H](Cc3c(Br)[nH]c4ccccc34)N12 [Compound 13g, (3S, 9bR)-3-((2-bromo-1H-indol-3-yl)methyl)-9b-(4-fluorophenyl)-2,3-dihydrooxazolo[2,3-a]isoindol-5(9bH)-one] | 1.0 | increase in the antiproliferative activity on bromine insertion at the C-2 indole (HCT116 p53+/+ cells): 1.2 fold
13 ± 1.01 | 16 ± 2 | CCn1c(Br)c(C[C@H]2CO[C@]3(c4ccccc4)c4ccccc4C(=O)N23)c2ccccc21 [Compound 13j, (3S, 9bR)-3-((2-bromo-1-ethyl-1H-indol-3-yl)methyl)-9b-phenyl-2,3-dihydrooxazolo[2,3-a]isoindol-5(9bH)-one] | 1.2 | –
5.8 ± 0.3 | 5.8 ± 0.4 | O=C1c2ccccc2[C@@]2(c3ccc(Cl)cc3)OC[C@H](Cc3c(Br)[nH]c4ccccc34)N12 [Compound 13h, (3S, 9bR)-3-((2-bromo-1H-indol-3-yl)methyl)-9b-(4-chlorophenyl)-2,3-dihydrooxazolo[2,3-a]isoindol-5(9bH)-one] | 1.0 | increase in the antiproliferative activity on bromine insertion at the C-2 indole (HCT116 p53+/+ cells): 1.5 fold
25.6 ± 1.4 | 10.8 ± 2 | Cn1c(Br)c(C[C@H]2CO[C@]3(c4ccccc4)c4ccccc4C(=O)N23)c2ccccc21 [Compound 13c, (3S, 9bR)-3-((2-bromo-1-methyl-1H-indol-3-yl)methyl)-9b-phenyl-2,3-dihydrooxazolo[2,3-a]isoindol-5(9bH)-one] | 0.4 | –
